Read-outs that look alike come from different tables or passages of the source.
Columns and labels:
[1] = biological target: T1, CYP2B6 (Homo sapiens, UniProt P20813); experiment: P450-Glo luminescence inhibition assay; type: biochemical
T1 construct: native enzyme in pooled human liver microsomes (200 donors, male and female; Sekisui XenoTech), isoform-selective P450-Glo CYP2B6 kit
T1 sequence (P20813 1-491): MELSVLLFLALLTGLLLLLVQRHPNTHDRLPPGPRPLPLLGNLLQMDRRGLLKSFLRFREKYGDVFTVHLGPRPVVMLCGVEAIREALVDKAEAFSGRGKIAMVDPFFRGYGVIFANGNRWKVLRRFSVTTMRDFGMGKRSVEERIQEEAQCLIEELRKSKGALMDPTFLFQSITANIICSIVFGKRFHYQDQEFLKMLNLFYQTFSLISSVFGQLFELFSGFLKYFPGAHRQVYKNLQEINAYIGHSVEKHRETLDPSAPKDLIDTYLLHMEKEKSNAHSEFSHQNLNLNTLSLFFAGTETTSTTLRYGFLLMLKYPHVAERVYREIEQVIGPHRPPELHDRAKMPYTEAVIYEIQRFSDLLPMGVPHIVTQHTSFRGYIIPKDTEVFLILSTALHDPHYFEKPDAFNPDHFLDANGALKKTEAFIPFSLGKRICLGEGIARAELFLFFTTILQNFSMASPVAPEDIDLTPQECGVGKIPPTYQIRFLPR

[2] = biological target: T2, CYP3A4 (Homo sapiens, UniProt P08684); experiment: P450-Glo luminescence inhibition assay; type: biochemical
T2 construct: native enzyme in pooled human liver microsomes (200 donors, male and female; Sekisui XenoTech), isoform-selective P450-Glo CYP3A4 kit
T2 sequence (P08684 2-503): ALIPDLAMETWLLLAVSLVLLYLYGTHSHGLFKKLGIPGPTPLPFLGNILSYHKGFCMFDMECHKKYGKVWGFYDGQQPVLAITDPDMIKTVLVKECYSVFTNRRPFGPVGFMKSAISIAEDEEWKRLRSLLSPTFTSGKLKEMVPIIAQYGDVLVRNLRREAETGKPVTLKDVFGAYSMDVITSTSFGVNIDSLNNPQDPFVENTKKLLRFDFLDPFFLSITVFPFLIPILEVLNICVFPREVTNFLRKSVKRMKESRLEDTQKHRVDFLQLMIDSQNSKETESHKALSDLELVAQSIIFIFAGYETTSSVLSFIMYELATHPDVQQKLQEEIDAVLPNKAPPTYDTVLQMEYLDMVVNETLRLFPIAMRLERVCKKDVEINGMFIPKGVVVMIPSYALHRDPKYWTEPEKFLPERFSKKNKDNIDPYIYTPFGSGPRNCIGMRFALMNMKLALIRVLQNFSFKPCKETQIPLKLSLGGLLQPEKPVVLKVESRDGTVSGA

Row | Compound | IC50 [1] [µM] | IC50 ([2]; read-out: CYP3A4 IC50) [µM] | IC50 ([2]; read-out: CYP2B6 IC50) [µM]
1 | CC1(C)[C@H]2CC[C@]1(C)C(=O)C2 [Camphor (-)] | 142 | > 600 | –
2 | O=c1c(O)c(-c2ccc(O)cc2)oc2cc(O)cc(O)c12 [Kaempferol] | > 600 | 33.8 | –
3 | O=C(/C=C/c1ccc(O)c(O)c1)O[C@@H]1C[C@](O)(C(=O)O)C[C@@H](O)[C@H]1O [Chlorogenic Acid] | > 600 | – | > 600
4 | COc1cc2ccc(=O)oc2cc1O [Scopoletin] | > 600 | – | –
5 | C=C(C(=O)O)[C@@H]1CC[C@@H](C)[C@@H]2CCC(C)=C[C@@H]21 [Artemisinic Acid] | 123 | 240 | –

The next molecules have a lower IC50 [1] than those just listed; values first:

Row | IC50 [1] [µM] | IC50 ([2]; read-out: CYP3A4 IC50) [µM] | IC50 ([2]; read-out: CYP2B6 IC50) [µM] | Compound
6 | 119 | > 600 | – | CC1(C)[C@@H]2CC[C@@]1(C)C(=O)C2 [Camphor (+)]
7 | 111 | > 600 | – | C[C@@H]1CC[C@H]2[C@@H](C)C(=O)O[C@@H]3O[C@@]4(C)CC[C@@H]1[C@]32O4 [Deoxyartemisinin]
8 | 74.7 | 21.7 | – | COc1cc(-c2oc3cc(OC)c(OC)c(O)c3c(=O)c2OC)ccc1O [Chrysosplenetin]
9 | 52.1 | 23 | – | COc1cc2oc(-c3ccc(O)c(O)c3)c(OC)c(=O)c2c(O)c1OC [Chrysosplenol-D]
10 | 19.9 | 4.59 | – | O=c1c(O)c(-c2ccc(O)c(O)c2)oc2cc(O)cc(O)c12 [Quercetin]
11 | 9.36 | 12.3 | – | C=C1C(=O)O[C@@]23[C@H]1CC[C@@H](C)[C@@H]2CC[C@@]1(C)O[C@@H]31 [Arteannuin B]

From paper PMC7072484 (Biomolecules, 2020)
